Patent US20250276962A1, “CONTRACEPTIVE COMPOUNDS AND METHODS” (Regents of the University of Minnesota, priority 2021, published 2025)
“Also recorded” adds a separate entry of the source. Where two headings read alike, the source gives them in different places.

Legend:
in vitro [1] = conditions: human
in vitro [2] = conditions: human hepatocytes
[3] = target: human Ether-á-go-go related gene (hERG) channel (Homo sapiens, UniProt Q12809); assay: cell-based
Description: (§1) The potential inhibitory effect on human Ether-á-go-go related gene (hERG) channel was evaluated using a manual patch-clamp system. A HEK293 cell line stably transfected with hERG gene was employed.

hERG = hERG (Homo sapiens, UniProt Q12809); assay: in vitro; conditions: human
Description: as §1

[4] = target: monoamine oxidase A (MAO-A) (Homo sapiens, UniProt P21397); assay: Off-target screening, MAO-A; type: biochemical
physchem = conditions: pH 7.4
male CD-1 mice = assay: Mouse studies with epididymal sperm count as readout; conditions: 10 mg/kg/day for 4 weeks
Single dose PK, marmoset = type: in vivo; conditions: male, monkey, plasma, Marmoset 5 mg/kg
Description: NHP studies: Three young adult male marmosets received a single 5 mg/kg dose of the compound of Example land the compound of 3 sexually mature male cynomolgus macaques received a single dose of 0.5, 1, 5 and 10 mg/kg.

[5] = Repeat dose PK (14 days), rat; type: in vivo; conditions: male, Sprague-Dawley, plasma, oral, Day 14, read-out: AUC0-48
KCNQ1 = assay: in vitro; type: cell-based
[6] = Stability in monkey hepatocytes; type: in vitro ADME; conditions: read-out: Half-life (T1/2) Hepatocytes (Phase I and Phase II metabolism) (converted)
in vivo = conditions: male, Beagle, dog, oral
[7] = Stability in rat hepatocytes; type: in vitro ADME; conditions: read-out: Half-life (T1/2) Hepatocytes (Phase I and Phase II metabolism) (converted)
[8] = target: acetylcholinesterase (AChE) (Homo sapiens, UniProt P22303); assay: Off-target screening, AChE; type: biochemical
[9] = target: cannabinoid receptor 2 (CB2) (Homo sapiens, UniProt P34972); assay: Off-target screening, CB2; type: cell-based
cyclooxygenase 2 (COX2) = cyclooxygenase 2 (COX2) (Homo sapiens, UniProt P35354); assay: Off-target screening, COX2; type: biochemical
[10] = Solubility in PBS at pH 7.4; type: physicochemical
[11] = target: KVLQT(7.1)/mink (cardiac potassium ion channel) (Homo sapiens, UniProt P51787); assay: Off-target screening, KVLQT(7.1)/mink; type: cell-based
[12] = Repeat dose PK (14 days), dog; type: in vivo; conditions: male, Beagle, plasma, oral, Day 14
Description: […]. In this study, AUC0-inf was measured.

Sequence of human Ether-á-go-go related gene (hERG) channel (Q12809 whole entry): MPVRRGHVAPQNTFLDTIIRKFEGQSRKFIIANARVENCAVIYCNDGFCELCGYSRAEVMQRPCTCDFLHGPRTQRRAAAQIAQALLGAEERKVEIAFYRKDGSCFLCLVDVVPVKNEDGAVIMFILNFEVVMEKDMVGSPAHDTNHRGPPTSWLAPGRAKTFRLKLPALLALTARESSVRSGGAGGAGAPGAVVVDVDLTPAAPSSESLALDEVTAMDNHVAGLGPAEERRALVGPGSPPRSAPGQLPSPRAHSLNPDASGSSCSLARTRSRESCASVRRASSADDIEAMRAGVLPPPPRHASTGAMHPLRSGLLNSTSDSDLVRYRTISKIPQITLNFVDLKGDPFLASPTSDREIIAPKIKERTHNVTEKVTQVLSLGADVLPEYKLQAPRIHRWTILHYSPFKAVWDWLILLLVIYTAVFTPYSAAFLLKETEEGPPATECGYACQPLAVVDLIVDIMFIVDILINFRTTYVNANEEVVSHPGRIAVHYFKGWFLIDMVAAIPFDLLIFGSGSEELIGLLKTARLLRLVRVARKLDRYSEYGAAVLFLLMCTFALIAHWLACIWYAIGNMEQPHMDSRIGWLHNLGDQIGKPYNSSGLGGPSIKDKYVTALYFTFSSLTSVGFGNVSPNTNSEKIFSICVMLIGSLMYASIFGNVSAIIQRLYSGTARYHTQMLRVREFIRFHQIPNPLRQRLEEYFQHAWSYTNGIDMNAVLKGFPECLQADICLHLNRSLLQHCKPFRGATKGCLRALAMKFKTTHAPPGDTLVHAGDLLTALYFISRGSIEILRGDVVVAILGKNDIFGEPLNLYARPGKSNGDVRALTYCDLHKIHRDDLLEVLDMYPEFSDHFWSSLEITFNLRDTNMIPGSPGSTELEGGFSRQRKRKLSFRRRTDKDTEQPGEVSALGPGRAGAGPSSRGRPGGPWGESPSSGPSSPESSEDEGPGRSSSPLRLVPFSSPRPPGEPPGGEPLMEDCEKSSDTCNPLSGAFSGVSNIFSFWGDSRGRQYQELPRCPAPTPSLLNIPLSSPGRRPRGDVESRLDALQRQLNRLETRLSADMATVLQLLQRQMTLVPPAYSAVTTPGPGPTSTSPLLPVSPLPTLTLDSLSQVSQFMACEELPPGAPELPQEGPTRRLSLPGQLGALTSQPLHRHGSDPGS
Sequence of hERG (Q12809 whole entry): as above
Sequence of acetylcholinesterase (AChE) (P22303 32-614, species assumed): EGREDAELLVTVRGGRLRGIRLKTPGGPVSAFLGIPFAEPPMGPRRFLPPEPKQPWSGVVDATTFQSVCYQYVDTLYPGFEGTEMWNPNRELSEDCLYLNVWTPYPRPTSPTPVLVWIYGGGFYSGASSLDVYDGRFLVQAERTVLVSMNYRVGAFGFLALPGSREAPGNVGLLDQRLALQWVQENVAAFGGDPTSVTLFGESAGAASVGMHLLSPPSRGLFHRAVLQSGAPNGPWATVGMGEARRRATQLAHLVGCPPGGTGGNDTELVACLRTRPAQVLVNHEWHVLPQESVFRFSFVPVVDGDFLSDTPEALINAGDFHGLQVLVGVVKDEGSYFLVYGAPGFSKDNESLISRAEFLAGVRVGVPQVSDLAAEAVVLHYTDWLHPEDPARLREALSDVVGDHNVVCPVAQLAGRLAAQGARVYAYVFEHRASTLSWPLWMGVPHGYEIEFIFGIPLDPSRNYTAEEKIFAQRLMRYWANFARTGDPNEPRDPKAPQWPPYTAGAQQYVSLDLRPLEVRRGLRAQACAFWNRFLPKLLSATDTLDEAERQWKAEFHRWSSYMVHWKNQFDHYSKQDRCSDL
Sequence of monoamine oxidase A (MAO-A) (P21397 whole entry, species assumed): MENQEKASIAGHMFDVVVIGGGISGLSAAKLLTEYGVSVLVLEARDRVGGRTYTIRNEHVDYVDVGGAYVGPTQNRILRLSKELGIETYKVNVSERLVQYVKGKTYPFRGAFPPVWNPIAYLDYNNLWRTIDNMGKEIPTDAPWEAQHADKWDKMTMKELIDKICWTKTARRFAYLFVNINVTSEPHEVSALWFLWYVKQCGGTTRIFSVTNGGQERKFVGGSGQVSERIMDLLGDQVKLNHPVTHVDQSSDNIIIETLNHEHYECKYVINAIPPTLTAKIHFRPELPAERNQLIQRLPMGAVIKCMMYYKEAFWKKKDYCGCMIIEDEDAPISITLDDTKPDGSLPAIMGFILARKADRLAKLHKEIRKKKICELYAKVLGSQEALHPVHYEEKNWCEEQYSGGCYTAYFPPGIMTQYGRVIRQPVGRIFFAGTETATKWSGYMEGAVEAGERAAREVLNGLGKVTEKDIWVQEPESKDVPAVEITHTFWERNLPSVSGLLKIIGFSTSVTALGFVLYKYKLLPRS
Sequence of cannabinoid receptor 2 (CB2) (P34972 whole entry, species assumed): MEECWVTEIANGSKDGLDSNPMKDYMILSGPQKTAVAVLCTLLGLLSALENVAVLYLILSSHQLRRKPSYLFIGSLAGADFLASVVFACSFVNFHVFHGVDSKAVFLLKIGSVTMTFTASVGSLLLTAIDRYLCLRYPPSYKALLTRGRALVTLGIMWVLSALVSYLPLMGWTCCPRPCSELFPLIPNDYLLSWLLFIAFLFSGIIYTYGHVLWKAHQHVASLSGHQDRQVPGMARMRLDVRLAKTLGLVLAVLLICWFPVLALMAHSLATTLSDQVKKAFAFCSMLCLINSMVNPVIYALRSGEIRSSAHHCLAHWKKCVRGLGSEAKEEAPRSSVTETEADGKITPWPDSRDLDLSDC
Sequence of cyclooxygenase 2 (COX2) (P35354 18-604, species assumed): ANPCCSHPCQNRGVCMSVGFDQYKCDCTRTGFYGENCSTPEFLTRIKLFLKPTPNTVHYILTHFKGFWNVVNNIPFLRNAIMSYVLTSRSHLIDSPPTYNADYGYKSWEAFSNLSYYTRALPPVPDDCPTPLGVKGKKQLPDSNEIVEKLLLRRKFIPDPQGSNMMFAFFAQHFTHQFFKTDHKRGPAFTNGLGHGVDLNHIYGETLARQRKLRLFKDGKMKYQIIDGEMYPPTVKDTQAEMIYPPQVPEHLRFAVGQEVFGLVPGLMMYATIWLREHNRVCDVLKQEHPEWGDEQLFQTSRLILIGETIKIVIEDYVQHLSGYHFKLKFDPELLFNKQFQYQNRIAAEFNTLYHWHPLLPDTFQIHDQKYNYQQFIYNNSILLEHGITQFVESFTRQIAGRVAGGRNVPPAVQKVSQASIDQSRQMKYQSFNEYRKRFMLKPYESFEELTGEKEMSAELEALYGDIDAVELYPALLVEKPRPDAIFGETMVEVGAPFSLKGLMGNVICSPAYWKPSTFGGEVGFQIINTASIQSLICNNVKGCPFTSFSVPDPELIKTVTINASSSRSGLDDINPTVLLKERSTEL

## Cc1ccc(C2=CC(C)(C)Oc3ccc(-c4ccc(-c5ccc(C(=O)[O-])cc5)[nH]4)cc32)cc1.[Na+] [Example 1, Sodium 4-(5-(2,2-dimethyl-4-(p-tolyl)-2H-chromen-6-yl)-1H-pyrrol-2-yl)benzoate]
In vitro [1]; microsomes
  CLint scaled: 3.05 mL/min/kg
In vitro [1]; pooled liver microsomes
  half-life: 9.5 h
In vitro [2]
  CLint scaled: 6.75 mL/min/kg
[3]
  IC50: > 30 µM
[3]; human
  hERG inhibitor ranking: The compound of Example lis not considered an hERG inhibitor. The IC50 in hERG-
[3]; read-out: hERG IC50, hERG-transfected HEK293 cells
  IC50: > 30 µM
[3]; read-out: hERG IC50, hERG-transfected HEK293 cells, patch clamp
  IC50: > 30 µM
hERG; % of hERG inhibition Cell 1, 3.33 μM
  inhibition at 3.33 µM: 6.99%
hERG; % of hERG inhibition Cell 1, 10.00 μM
  inhibition at 10 µM: 19.5%
hERG; % of hERG inhibition Cell 1, 30.00 μM
  inhibition at 30 µM: 35.9%
hERG; % of hERG inhibition Cell 2, 3.33 μM
  inhibition at 3.33 µM: 16.4%
hERG; % of hERG inhibition Cell 2, 10.00 μM
  inhibition at 10 µM: 20.2%
hERG; % of hERG inhibition Cell 2, 30.00 μM
  inhibition at 30 µM: 43.2%
hERG; Average % of hERG inhibition, 3.33 μM
  inhibition at 3.33 µM: 11.7%
hERG; Average % of hERG inhibition, 10.00 μM
  inhibition at 10 µM: 19.9%
[4]
  IC50: 24.6 µM
[4]; 10 μM
  inhibition at 10 µM: 45.8%
physchem
  logD: 3.5
Male CD-1 mice; 2 weeks recovery, 10 mg/kg/day
  Effect on sperm counts and recovery: Sperm counts started to increase; also recorded: reversibly reduces sperm counts
Male CD-1 mice; 24 h after last dose
  Epididymal sperm counts: 0.51±0.27 ×10^7
  Reduction of epididymal sperm counts: 90%
mouse
  Half-life (T1/2) Hepatocytes (Phase I and Phase II metabolism): 4.8 h
Mouse hepatocytes
  In vitro Clint (μL/min/10^6 cells): 4.79 μL/min/10^6 cells
  In vitro T1/2: 4.826 h
Single dose PK, marmoset
  AUC(0-inf): 6.92 µg·h/mL
[5]; Rat 25 mg/kg/day
  AUC(0-t): 78.8 µg·h/mL
[5]; Rat 50 mg/kg/day
  AUC(0-t): 91.1 µg·h/mL
KCNQ1
  inhibition at 10 µM: 22.8%
HepG2
  HepG2 cytotoxicity assay result: negative
HepG2; human
  HepG2 cytotoxicity assay result: The compound of Example 1 showed no cytopathic effects in HepG2 and human
[6]
  half-life: 3.2 h
In vivo
  MTD at 2 weeks: 25 mg/kg
Male Beagle dogs; dog, in vivo, 50 mg/kg/day
  Tolerability: not tolerated
Male Beagle dogs; dog, in vivo, 100 mg/kg/day
  Tolerability: one dog did not show any signs of toxicity
Male Beagle dogs; dog, in vivo, po, 25 mg/kg/day
  Tolerability: tolerated well
Male Beagle dogs; dogs
  Tolerated dose on repeated dosing for 14 days: 25 mg/kg
Male Beagle dogs; male, Beagle, dog, in vivo, 100 mg/kg/day, 14 days
  Tolerability: The other dog lost weight as of Day 12 until termination
Male Beagle dogs; male, Beagle, dog, in vivo, 14 days
  Safety margin: at least 10 ×
[7]
  half-life: 7.9 h
[8]
  IC50: > 30 µM
[8]; 10 μM
  inhibition at 10 µM: 10.2%
[9]
  IC50: 23.3 µM
[9]; 10 μM
  inhibition at 10 µM: 34.3%
Cyclooxygenase 2 (COX2)
  IC50: 8.51 µM
Cyclooxygenase 2 (COX2); read-out: Inhibition of COX2
  inhibition at 10 µM: 61.8%
[10]
  solubility: 78.57 µM
[11]
  inhibition at 10 µM: 14.9%
[12]; Dog 25 mg/kg/day
  AUC(0-inf): 752 µg·h/mL
[12]; Dog 100 mg/kg/day
  AUC(0-inf): 14100 µg·h/mL
